Among the data in patent US20240376076A1, “INHIBITORS TARGETING UBIQUITIN SPECIFIC PROTEASE 7 (USP7)” (Dana-Farber Cancer Institute, Inc., priority 2021, published 2024) are half-life and IC50 values, retold here.

Data set [1] can be described thus: plasma stability (Plasma Assay Protocol). It is filed as in vitro ADME. The following applies: 37° C., t1/2 extrapolated if >50% remaining at 60 min, ∞ if near 100% remaining. How it is done:
(§1) ND refers to not disclosed.
• 1. Preheated 0.05 M sodium phosphate and 0.07 M NaCl buffer, pH 7.4. Dissolved 14.505 g/L Na2HPO4·12H2O, 1.483 g/L NaH2PO4·2H2O and 4.095 g/L NaCl in deionized water. The basic solution was then titrated with the phosphoric acid to pH 7.40. Stored in fridge up to 7 days. Checked pH on the day of experiment and adjust if outside specification of 7.4+/−0.1. • 2. Plasma preparation: • Thawed frozen plasma by placing at 37° C. quickly. Centrifuged plasma at 3,000 rpm for 8 minutes to remove clots, pipetted and pooled the supernatant as the plasma to be used in the experiment. Checked and recorded the pH of the plasma. Only used plasma within the range of pH 7.4 to pH 8. If higher than pH 8, discarded the plasma. By using a 5% CO2 incubator and PBS buffer, a pH of 7.4 was reached after the 4 hour equilibrium dialysis time. Put the plasma on ice until used. • 3. Tested compounds and reference compounds spiking solution: • 0.5 mM test compounds spiking solution A: Added 10 μL of 10 mM test compounds stock solution to 190 μL DMSO. • 0.02 mM spiking solution B: Added 40 μL of spiking solution A to 960 μL of […] Sodium phosphate buffer with 0.5% BSA.
Pre-warmed the plasma and spiking solution B at 37° C. for 5 min. Added 10 μL of pre-warmed spiking solution B into the wells designated for all the time points (5, 15, 30, 45, 60 min).
For 0-min, added 400 μL of acetonitrile (ACN) containing the internal standard (IS) to the wells of 0-min plate and then added 90 μL of plasma. Added 90 μL of pre-warmed plasma into the wells designated for the time points (0, 5, 15, 30, 45, 60 min), and started timing. At 5, 15, 30, 45, 60 min, added 400 μL of ACN containing IS to the wells of corresponding plates, respectively, to stop the reaction. After quenching, shook the plates at the vibrator (IKA, MTS 2/4) for 10 min (600 rpm/min) and then centrifuged at 5594 g for 15 min (Thermo Multifuge×3R). Transferred 50 μL of the supernatant from each well into a 96-well sample plate containing 50 μL of ultra pure water (Millipore ZMQS50F01) for LC/MS analysis.

Data set [2] deals with T1, USP7, Active human recombinant protein (Homo sapiens, UniProt Q93009).
T1 construct: purchased CP Lot; 20200225001
The data set is described as follows: USP7 assay (Ubiquitin-Rhodamine 110 enzymatic assay). The following applies: read-out: IC50. Type of data set: biochemical. The method, boiled down: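 Kinetic 20-min fluorescence read (485/535 nm) of ubiquitin-rhodamine 110 (190 nM final) cleavage by 0.05 nM USP7 gave slopes. Compounds, 10 concentrations in 3-fold steps, had 15 min RT preincubation with enzyme first. Inhibition relative to max (enzyme+substrate) and min (substrate only) signals, fitted to IC50.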

A short description of data set [3]: mouse liver microsomal stability (Microsome Assay Protocol). The following applies: pH 7.4; mouse liver microsomes, NADPH, 37° C.; read-out: MLM t1/2, min. Type of data set: in vitro ADME. The protocol:
as §1
• 1. Buffer A: 1.0 L of 0.1 M monobasic Potassium Phosphate buffer containing 1.0 mM EDTA Buffer B: 1.0 L of 0.1 M Dibasic Potassium Phosphate buffer containing 1.0 mM EDTA • Buffer C: 0.1 M Potassium Phosphate buffer, 1.0 mM EDTA, pH 7.4 by titrating 700 mL of buffer B with buffer A while monitoring with a pH meter. • 2. Reference compound (Ketanserin) and test compounds spiking solution: • 500 μM spiking solution: added 10 μL of 10 mM DMSO stock solution into 190 μL ACN. • 1.5 μM spiking solution in microsomes (0.75 mg/mL): added 1.5 μL of 500 μM spiking solution and 18.75 μL of 20 mg/mL liver microsomes into 479.75 μL of Buffer C on ice. • 3. Prepared NADPH stock solution (6 mM) by dissolving NADPH into buffer C. Dispensed 30 μL of 1.5 μM spiking solution containing 0.75 mg/mL microsomes solution to the assay plates designated for different time points (0-, 5-, 15-, 30-, 45-min) on ice. For 0-min, added 135 μL of ACN containing IS to the wells of 0-min plate and then added 15 μL of NADPH stock solution (6 mM). Pre-incubated all other plates at 37° C. for 5 minutes. Added 15 μL of NADPH stock solution (6 mM) to the plates to start the reaction and timing. At 5-min, 15-min, 30-min, and 45-min, added 135 μL of ACN containing IS to the wells of corresponding plates, respectively, to stop the reaction. After quenching, shook the plates at the vibrator (IKA, MTS 2/4) for 10 min (600 rpm/min) and then centrifuged at 5594 g for 15 min (Thermo Multifuge×3R). Transferred 50 μL of the supernatant from each well into a 96-well sample plate containing 50 μL of ultra pure water (Millipore, ZMQS50F01) for LC/MS analysis.
(In general: Microsomes from liver hold many membrane-bound enzymes, among them those of drug oxidation.)

Structures are written as SMILES.

T1 sequence (Q93009 whole entry): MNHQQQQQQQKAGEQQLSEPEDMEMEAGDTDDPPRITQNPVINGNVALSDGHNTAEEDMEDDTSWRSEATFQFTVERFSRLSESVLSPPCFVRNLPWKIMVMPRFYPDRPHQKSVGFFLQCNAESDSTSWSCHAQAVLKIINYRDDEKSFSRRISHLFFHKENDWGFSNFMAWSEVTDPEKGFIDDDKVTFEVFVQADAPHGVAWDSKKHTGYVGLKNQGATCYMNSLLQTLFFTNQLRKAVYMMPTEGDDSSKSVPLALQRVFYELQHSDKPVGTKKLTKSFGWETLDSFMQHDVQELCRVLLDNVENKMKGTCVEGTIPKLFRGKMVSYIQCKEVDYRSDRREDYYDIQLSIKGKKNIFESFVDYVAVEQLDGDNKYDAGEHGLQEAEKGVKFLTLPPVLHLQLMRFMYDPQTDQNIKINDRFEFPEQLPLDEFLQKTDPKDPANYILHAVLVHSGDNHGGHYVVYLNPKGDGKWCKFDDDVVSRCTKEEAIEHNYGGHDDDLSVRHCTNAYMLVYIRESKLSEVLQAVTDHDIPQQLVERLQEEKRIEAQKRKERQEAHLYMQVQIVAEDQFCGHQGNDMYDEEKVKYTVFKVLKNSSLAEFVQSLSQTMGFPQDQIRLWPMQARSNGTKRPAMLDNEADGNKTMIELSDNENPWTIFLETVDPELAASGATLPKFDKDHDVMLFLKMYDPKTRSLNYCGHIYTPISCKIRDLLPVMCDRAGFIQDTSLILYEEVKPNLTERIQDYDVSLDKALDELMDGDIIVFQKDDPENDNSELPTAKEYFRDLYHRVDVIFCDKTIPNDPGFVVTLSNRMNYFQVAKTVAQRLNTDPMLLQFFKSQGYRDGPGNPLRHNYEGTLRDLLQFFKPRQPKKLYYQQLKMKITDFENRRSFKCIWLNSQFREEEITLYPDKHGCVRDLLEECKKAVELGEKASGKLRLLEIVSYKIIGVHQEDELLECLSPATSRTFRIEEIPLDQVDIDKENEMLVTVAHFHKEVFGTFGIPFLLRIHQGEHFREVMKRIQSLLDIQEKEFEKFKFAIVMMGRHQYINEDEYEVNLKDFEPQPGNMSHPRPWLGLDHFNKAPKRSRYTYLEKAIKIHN

Usually IC50 stands for the concentration needed to halve the response being measured. On to `C=CS(=O)(=O)Nc1ccccc1N1CCC(C(=O)N2CCC(O)(Cn3cnc4cc(NC(=O)CCN5CCN(C)CC5)ccc4c3=O)CC2)[C@H](c2ccccc2)C1` (some centres unmarked) [Compound 93], for which the half-life at 2 µM in data set [1] was 10.3 min. The IC50 in data set [2] is less than 20 nM. In addition, the half-life at 1 µM in data set [3] was determined as 14.7 min.

Regarding `O=C(NCCC[C@@H](Cc1ccccc1)C(=O)N1CCC(O)(Cn2cnc(NCCN3CCCC3)cc2=O)CC1)c1ccc2c(Cl)ccnc2c1` [Compound 13, N-(4-benzyl-5-(4-hydroxy-4-((6-oxo-4-(2-(pyrrolidin-1-yl)ethylamino)pyrimidin-1(6H)-yl)methyl)piperidin-1-yl)-5-oxopentyl)-4-chloroquinoline-7-carboxamide], the half-life at 2 µM in data set [1] was 91.9 min. For the same compound, the IC50 in data set [2] fell in the range of 20 to 100 nM.

As for `C=CC(=O)Nc1ccccc1-c1ccc(C(=O)N2CCC(O)(Cn3cnc4cc(NC(=O)CCN5CCN(C)CC5)ccc4c3=O)CC2)cc1` [Compound 24, N-(4′-(4-hydroxy-4-((7-(3-(4-methylpiperazin-1-yl)propanamido)-4-oxoquinazolin-3(4H)-yl)methyl)piperidine-1-carbonyl)biphenyl-2-yl)acrylamide], in data set [1], the half-life at 2 µM was 23 min. The 50% inhibitory concentration (IC50) in data set [2] was greater than 1000 nM.

As for `CN1CCN(CCC(=O)Nc2ccc3c(=O)n(CC4(O)CCN(C(=O)[C@@H](CCCNC(=O)c5ccc6c(Cl)ccnc6c5)Cc5ccccc5)CC4)cnc3c2)CC1` [Compound 59, (S)—N-(4-benzyl-5-(4-hydroxy-4-((7-(3-(4-methylpiperazin-1-yl)propanamido)-4-oxoquinazolin-3(4H)-yl)methyl)piperidin-1-yl)-5-oxopentyl)-4-chloroquinoline-7-carboxamide], in data set [1], the half-life at 2 µM was 78.9 min. Besides, the half-inhibitory concentration (IC50) in data set [2] fell in the range of 20 to 100 nM.

For the compound `CN(C)CCC(=O)Nc1ccc2c(=O)n(CC3(O)CCN(C(=O)C(CCCNC(=O)c4ccc5c(Cl)cc(O)nc5c4)Cc4ccccc4)CC3)cnc2c1` (centres unmarked) [Compound 65], the half-inhibitory concentration (IC50) in data set [2] was in the range of 100 to 1000 nM. In data set [3], the half-life at 1 µM came out at 12.8 min.

Regarding `CN(C)CCCOc1ccc2c(=O)n(CC3(O)CCN(C(=O)C(CCCNC(=O)c4ccc5c(Cl)c(CO)cnc5c4)Cc4ccccc4)CC3)cnc2c1` (centres unmarked), the IC50 in data set [2] was less than 20 nM. In data set [3], the half-life at 1 µM came to 57.6 min.

As to `CN(C)CCC(=O)Nc1ccc2c(=O)n(CC3(O)CCN(C(=O)C(Cc4ccccc4)c4cccc(NC(=O)c5ccc6c(Cl)ccnc6c5)c4)CC3)cnc2c1` (centres unmarked) [Compound 72], the IC50 in data set [2] was in the range of 100 to 1000 nM. The half-life at 1 µM in data set [3] came to 29.5 min.

For `CN(C)CCC(=O)Nc1ccc2c(=O)n(CC3(O)CCN(C(=O)c4cn(CCNC(=O)c5ccc6c(Cl)ccnc6c5)nc4C4CC4)CC3)cnc2c1` [Compound 56, 4-chloro-N-(2-(3-cyclopropyl-4-(4-((7-(3-(dimethylamino)propanamido)-4-oxoquinazolin-3(4H)-yl)methyl)-4-hydroxypiperidine-1-carbonyl)-1H-pyrazol-1-yl)ethyl)quinoline-7-carboxamide], the IC50 in data set [2] is greater than 1000 nM. The half-life at 1 µM in data set [3] was found to be 95.9 min.

Consider `CNc1cc(Cl)nc2cc(C(=O)NCCCC(Cc3ccccc3)C(=O)N3CCC(O)(Cn4cnc5cc(NC(=O)CCN(C)C)ccc5c4=O)CC3)ccc12` (centres unmarked) [Compound 70], for which the IC50 in data set [2] was in the range of 20 to 100 nM. Also, the half-life at 1 µM in data set [3] was determined as 10.3 min.

In the case of `CN(C)CCCOc1ccc2c(=O)n(CC3(O)CCN(C(=O)[C@H](CCCNC(=O)c4cnc5c(Cl)ccnc5c4)Cc4ccccc4)CC3)cnc2c1`, the IC50 in data set [2] was 100 to 1000 nM. The half-life at 1 µM in data set [3] turned out to be 44 min.

For `CN1CCN(CCC(=O)Nc2ccc3c(=O)n(CC4(O)CCN(C(=O)C(CCCNC(=O)c5ccc6c(Cl)cc(C7(F)CC7)nc6c5)Cc5ccccc5)CC4)cnc3c2)CC1` (centres unmarked) [Compound 21, N-(4-benzyl-5-(4-hydroxy-4-((7-(3-(4-methylpiperazin-1-yl)propanamido)-4-oxoquinazolin-3(4H)-yl)methyl)piperidin-1-yl)-5-oxopentyl)-4-chloro-2-(1-fluorocyclopropyl)quinoline-7-carboxamide], the half-maximal inhibitory concentration (IC50) in data set [2] is greater than 1000 nM. The half-life at 1 µM in data set [3] stood at 18.5 min.

As for `CN(C)CCCOc1ccc2c(=O)n(CC3(O)CCN(C(=O)[C@@H](CCCNC(=O)c4ccc5c(Cl)c6c(nc5c4)CCCC6)Cn4ccc(F)n4)CC3)cnc2c1`, the half-life at 2 µM in data set [1] is 127 min. In addition, in data set [3], the half-life at 1 µM was determined as 6.96 min.

As to `CN(C)CCCOc1ccc2c(=O)n(CC3(O)CCN(C(=O)C(Cc4ccccc4)NCCNC(=O)c4ccc5c(Cl)c(C(N)=O)cnc5c4)CC3)cnc2c1` (centres unmarked), the IC50 in data set [2] was less than 20 nM. The half-life at 1 µM in data set [3] came out at 65.5 min.

Take `O=C(CCn1ccnc1)Nc1ccc2c(=O)n(CC3(O)CCN(C(=O)C(CCCNC(=O)c4ccc5c(Cl)ccnc5c4)Cc4ccccc4)CC3)cnc2c1` (centres unmarked) [Compound 63, N-(5-(4-((7-(3-(1H-imidazol-1-yl)propanamido)-4-oxoquinazolin-3(4H)-yl)methyl)-4-hydroxypiperidin-1-yl)-4-benzyl-5-oxopentyl)-4-chloroquinoline-7-carboxamide]: the IC50 in data set [2] was 100 to 1000 nM. Besides, in data set [3], the half-life at 1 µM was 4.16 min.

For the compound `CN(C)CCCOc1cc2ncn(CC3(O)CCN(C(=O)[C@@H](CCCNC(=O)c4ccc5c(Cl)cc(C6CC6)nc5c4)Cc4ccccc4)CC3)c(=O)c2cc1F`, the IC50 in data set [2] is less than 20 nM. The half-life at 1 µM in data set [3] was 22.1 min.

In the case of `CN(C)CCCOc1ccc2c(=O)n(CC3(O)CCN(C(=O)[C@@H](CCCNC(=O)c4ccc5c(Cl)c(C(=O)NC6CC6)cnc5c4)Cc4ccccc4)CC3)cnc2c1`, the IC50 in data set [2] was less than 20 nM. The half-life at 1 µM in data set [3] amounted to 62.4 min.

`Cc1cc(Cl)c2ccc(C(=O)N3CCN(CC(=O)N4CCC(O)(Cn5cnc6cc(Cl)ccc6c5=O)CC4)CC3)cc2n1` [Compound 80]: the IC50 in data set [2] was greater than 1000 nM. The half-life at 1 µM in data set [3] was 5.41 min.

In the case of `Cc1nc2c(=O)n(CC3(O)CCN(C(=O)C4CCN(CCNC(=O)c5ccc6c(Cl)ccnc6c5)CC4c4ccccc4)CC3)cnc2n1-c1ccc(F)cc1` (centres unmarked) [Compound 110], the IC50 in data set [2] is 100 to 1000 nM. Also, the half-life at 1 µM in data set [3] worked out at 2.21 min.

Regarding `O=C(NCCCC(Cc1ccccc1)C(=O)N1CCC(O)(Cn2cnc3c(cnn3-c3ccc(F)cc3)c2=O)CC1)c1ccc2c(Cl)ccnc2c1` (centres unmarked) [Compound 6, N-(4-benzyl-5-(4-((1-(4-fluorophenyl)-4-oxo-1,4-dihydro-5H-pyrazolo[3,4-d]pyrimidin-5-yl)methyl)-4-hydroxypiperidin-1-yl)-5-oxopentyl)-4-chloroquinoline-7-carboxamide], in data set [2], the IC50 is 20 to 100 nM. The half-life at 1 µM in data set [3] came to 1 min.

Turning to `NC(=O)c1cnc2cc(C(=O)NCCCC(Cn3ccc(F)n3)C(=O)N3CCC(O)(Cn4cnc5ccccc5c4=O)CC3)ccc2c1Cl` (centres unmarked), the IC50 in data set [2] was 20 to 100 nM. In data set [3], the half-life at 1 µM came to 6.51 min.
